Here are results for three molecules from US7250157B2, “Dermatological compositions and methods” (Applied Genetics Incorporated Dermatics, priority 1996, dated 2007).

Values joined by “and” are separate entries in the source; they are usually repeats but may differ in a detail not shown here. Equal values may be shown once.

In series [1] the test system is Cloudman S91 mouse melanoma cell line. Briefly: Melanin content of S91 cells after treatment with test compound. Format: cell-based. Put shortly:
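Mouse S91 melanoma cells seeded at 10^5 cells/35 mm dish in 10% calf serum and cultured with test compound 6 days at 37 °C, 5% CO2. Differentiation scored microscopically, trypsin detachment time recorded, cells counted; melanin measured by absorbance at 475 nm and expressed as pg melanin/cell.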

For series [2], the system named is Normal human epidermal melanocytes (NHEMs). Nature of the series: Melanin induction in normal human epidermal melanocytes. Format: cell-based. How it is done: Normal human epidermal melanocytes (NHEMs) were examined for induction of melanogenesis using cells and media from Clonetics Corporation (San Diego, Calif.). Cells were cultured exactly as specified by the supplier.

The subject of series [3] is tyrosinase activity in S91 mouse melanoma cells. Briefly: Induction of tyrosinase activity in S91 cells. As to conditions: 300 mM PG-1,2; 25 mM 3,3-M-1,2-BD; 50 mM 1,2-cs-CPD; 5 mM 5-NBene-2,2-DM; 0.5 mM 2,3-Pyd; 0.1 mM IBMX; mean ±SE.
Procedure: Compounds were examined for their ability to induce tyrosinase activity in S91 mouse melanoma cells. […] Following treatments, cells were trypsinized, counted by Coulter, pelleted by centrifugation at 1000×g, and analyzed for tyrosinase activity using modifications of previously described procedures (Pomerantz, S. H., 1966, J. Biol. Chem. 241:161-168; Jara, et al., 1988, Pigment Cell Res. 1: 332-339.). Briefly, cell pellets were solubilized by sonicating for 5 seconds in 600 ul 50 mM phosphate buffer pH 6.8 containing 0.5% Triton-X100, followed by vortexing, incubation on ice for 30 min, and then revortexing. From this, 200 ul aliquots were combined with 200 ul of reaction mixture containing either 75 uM tyrosine, 75 uM L-Dopa, and 2 uCi L-[3,5-^3H]Tyrosine in 50 mM NaPO4 pH 6.8 (L-Dopa+), or, 75 uM tyrosine, and 2 uCi L-[3,5-^3H]Tyrosine in 50 mM NaPO4 pH 6.8 (L-Dopa−) and incubated 1 hr at 37° C. Reactions were stopped by addition of 400 ul 10% activated charcoal in 0.1N HCl and incubation on ice for 15 min. This mixture was centrifuged at 17,300×g for 5 min, and 400 ul supernatant was then filtered through a 0.22 uM GV Durapore centifugal filter unit (Millipore) by centrifuging at 17,300×g for 5 min. Filtrate was added to 4 ml Fisher Plus scintillation fluid and counted on a Hewlett Packard scintillation counter. Tyrosinase activity was calculated as dpm/hr/ug protein and dpm/hr/10^3 cells. Each sample was analyzed with and without L-Dopa, a necessary cofactor for tyrosinase (Pomerantz, S. H., 1966, J. Biol. Chem. 241:161-168; McLane, et al., 1987, Biochem. Biophys. Res. Commun. 145:719-725). All reported tyrosinase values are exclusive of counts that occurred in buffer blanks and L-dopa negative aliquots. Protein was determined on aliquots of cell lysate, extracellular particulate lysate or media by the Bradford Coomassie Blue method (Bradford, 1967, Anal. Biochem. 72:248-254) using Bio-Rad Protein Assay Kit I.
The test system of series [4] is Cloudman S91 mouse melanoma cell line. Nature of the series: Cell count (proliferation, toxicity) of treated S91 cells. The class given is cell-based. How it is done: The Cloudman S91 mouse melanoma cell line was obtained from American Type Culture Collection (ATCC). Cells were cultured in Dulbecco's Modified Eagles Medium (DMEM) containing 10% calf serum, 2 mM L-glutamine, 10 U Penicillin/ml and 10 ug Streptomycin/ml according to a previously published protocol (Eller, et al., Proc. Natl. Acad. Sci. 93:1087-92. 1996). For testing propylene glycol and analogues for induction of melanogenesis, S91 cells were plated at 10^5 cells/35 mm dish in 10% calf serum. One day after plating, media was removed and replaced with media containing 2% calf serum and test compounds (Eller, et al., 1996). Cells were cultured for 6 days at 37° C. in 5% CO2 in a humidified incubator. Following this treatment period, cells were examined microscopically and the portion of dedifferentiated and differentiated cells was estimated. Previous studies have shown that dedifferentiated S91 cells have a rounded, spindly appearance while differentiated S91 cells have a flattened, cuboidal, multipolar and dendritic appearance (Orlow, et al., Exp. Cell Res. 191:209-218, 1990).
Following this microscopic examination, cells were detached from dishes by trypsin. The time required for detachment by trypsin was recorded as an additional indicator of the phenotypic effects of test compounds. For each treatment, a subsample of cells was counted to determine the effects of treatment compounds on cellular proliferation. The remainder of cells were used for determination of melanin content. Melanin was extracted from cells by vortexing for 15 min in 1N NaOH. Standards were prepared by dissolving melanin (Sigma) in 1 N NaOH (Eller, et al., 1996). Absorbance of standards and samples was measured at 475 nm. Melanin was expressed as pg melanin/cell.

Series [5] has as its system American short-haired guinea pigs. Nature of the series: Topical melanogenesis (pigmentation rating) in guinea pigs. The class given is in vivo, guinea pig. The arrangement: Pigmentation Rating / Pigmentation Rating Background Corrected: scale not given here. The settings on record: for Pigmentation Rating Normalized to 1,2-PG / Pigmentation Rating Normalized to 1M / Pigmentation Rating Background Corrected / Pigmentation Rating: No Penetration Enhancer; for Pigmentation Rating Normalized to 1,2-PG / Pigmentation Rating Normalized to 1M / Pigmentation Rating Background Corrected: concentrations as E85; for Pigmentation Rating Background Corrected: corrected for Nair control; for Pigmentation Rating: sites c and d, 13.61M 1,2-PG, 11.0M 2,3-M-2,3-BD, 11.3M 2-M-1,3-PG, 8.7M 1,2-cs-CPD, 4.0M 3,3-M-1,2-BD; for greater melanogenesis than PG applied at similar body locations: guinea pig, 5 days; for relative melanogenesis rating (mean ±SE), scale 0-4: 25 μl twice per day for 5 days, rated two weeks after. How it is done: Compounds were tested for melanogenic activity in vivo by application to American short-haired guinea pigs. Treatment sites were created by removal of fur using Nair® brand depilatory. In the Table, the numbers presented are the relative melanogenesis rating (mean ±SE), and are arranged according to the relative location on the animal, with the head being to the left and the tail being to the right. Propylene glycol (PG=13.6M), 2,3-butanediol (2,3-BD=10.95M), and 1,2-cis-cyclopentanediol (1,2-cs-CPD=10.7M) were applied as full strength solutions. 3,3-dimethyl-1,2-butanediol (3,3-M-1,2-BD) was applied as a 4M solution dissolved in ethanol. Two weeks following cessation of treatments, the degree of pigmentation was subjectively rated according to the following scale:
In order to minimize the effects of dimunition of response from head to tails of animals, all future experiments were done using only treatment spots located towards the tails of animals (c and d in Table 7). Deemed as additionally beneficial, in this area of the animal differences of responsiveness to strong and weak inducers of pigmentation, as deduced from cell culture, were greatest. […] Pigmentation ratings were corrected for background (control treatment spots), normalized to 1M to account for the different amounts of each agent applied, and then normalized to results for 1,2-PG (Table 8). […] It is anticipated that further improvements in formulation will additionally improve responsiveness to 5-NBene-2,2-DM and other compounds in this invention.
In FIG. 5, a, b, c and d indicate treatment spots that transverse the anterior-posterior axis along the backs of guinea pigs.

The test system of series [6] is Tyrosinase in normal human epidermal melanocytes (NHEM). Nature of the series: Tyrosinase in NHEM (in situ, cellular, extracellular particulate, media). Format: cell-based. The procedure:
Tyrosinase was measured in normal human epidermal melanocytes (NHEM) using procedures identical to those described for S91 cells (Example 6), […], 1600×g, or 17,300×g for analysis of tyrosinase activity in the extracellular exported melanosomal particulate fraction, and in the resultant supernatant media fraction. In some cases (Table 11), tyrosinase was also measured by an in situ assay wherein radiolabelled tyrosine was added directly to freshly replaced media of NHEM for a period of 24 hrs following a 5 day treatment period (Abdel-Malek, et al., 1992, J. Cell. Physiol. 150:416-425). […] Both 5 mM 5-NBene-2,2-DM and 25 mM 3,3-M-1,2-BD induced more tyrosinase in each of these assays and fractions than did 1,2-PG. IBMX (3-isobutyl-1-methyl-xanthine) provided as a positive control, induced as much tyrosinase as 5 mM 5-NBene-2,2-DM in the in situ assay, but less in cellular, extracellular particulate and media fractions (Table 11).

[7] abbreviates: 5 day treatment, concentrations as E130.
The mark [8] stands for this setting: pair of replicates, concentrations as E130.

As to `Oc1cccnc1O` [2,3-Pyridinediol, 2,3-pyridinediol], the “Concentration Required for ≧2-fold Melanin Induction in S91 Cells” value in series [1] was found to be 0.1 mM. For the same molecule, the “Concentration Required for ≧1.5-fold Melanin Induction in NHEMs” value in series [2] turned out to be 0.2 mM. Also, in series [3], the “Tyrosinase dpm/hr 10^3 Cells” value was found to be 142 ± 8 dpm/hr/10^3 Cells and the “Tyrosinase dpm/hr ug Protein” value was 160 ± 19 dpm/hr/ug Protein. For the same molecule, the “toxicity to S91 cells” value in series [4] (levels higher than 500 uM) is “toxic”.
As for `O[C@@H]1CCC[C@@H]1O` [1,2-cs-CPD, 1,2-cis-cyclopentanediol], in series [1], the “Concentration Required for ≧2-fold Melanin Induction in S91 Cells” value was determined as 10 mM. For the same molecule, in series [5], the “Pigmentation Rating Normalized to 1,2-PG” value is 13.5 ± 1.9, the “Pigmentation Rating Normalized to 1M” value was found to be 0.202 ± 0.029, the “Pigmentation Rating Background Corrected” value is 1.75 ± 0.25 and the “Pigmentation Rating” value was 1.89 ± 0.27. Besides, the “greater melanogenesis than PG applied at similar body locations” value in series [5] came out at 5.5 fold. Moreover, in series [5] (site d (tail), full strength solutions), the “relative melanogenesis rating (mean ±SE), scale 0-4” value was 1.83 ± 0.33^2. Moreover, the “Pigmentation Ratings (X ± SE; n = 6; scale 0 to +4)” value in series [5] (spot a (anterior), 8.7M 1,2-cis-CPD in 20% ETOH, 1M 5-NBene-2,2-DM in 8.5 M propylene glycol, 2% 2-pyrrolidone, 20% ETOH, 1M 2,3-cs/ex PD in 50% ETOH) was found to be 1.83 ± 0.17. The “Pigmentation Ratings (X ± SE; n = 6; scale 0 to +4)” value in series [5] (spot b, formulations as E220) is 1.92 ± 0.43. Also, the “Pigmentation Ratings (X ± SE; n = 6; scale 0 to +4)” value in series [5] (spot c, formulations as E220) is 1.92 ± 0.20. The “Pigmentation Ratings (X ± SE; n = 6; scale 0 to +4)” value in series [5] (spot d (posterior), formulations as E220) is 1.58 ± 0.24. Also, the “Concentration Required for ≧1.5-fold Melanin Induction in NHEMs” value in series [2] came out at 50 mM. For the same molecule, in series [3], the “Tyrosinase dpm/hr 10^3 Cells” value came to 276 ± 16 dpm/hr/10^3 Cells and the “Tyrosinase dpm/hr ug Protein” value was 925 ± 53 dpm/hr/ug Protein.
On to `CC(C)(C)C(O)CO` (stereo not shown) [3,3-M-1,2-BD, 3,3-dimethyl-1,2-butanediol], for which, in series [1], the “Concentration Required for ≧2-fold Melanin Induction in S91 Cells” value came to 10 mM. In addition, in series [5], the “Pigmentation Rating Normalized to 1,2-PG” value is reported as 18.1 ± 6.8, the “Pigmentation Rating Normalized to 1M” value is given as 0.272 ± 0.102, the “Pigmentation Rating Background Corrected” value came out at 1.09 ± 0.41 and the “Pigmentation Rating” value worked out at 1.17 ± 0.44. In addition, the “greater melanogenesis than PG applied at similar body locations” value in series [5] was 4.5 fold. Moreover, in series [5] (site c, full strength, 3,3-M-1,2-BD 4M in ethanol), the “relative melanogenesis rating (mean ±SE), scale 0-4” value is recorded as 1.16 ± 0.66^2. Also, the “Concentration Required for ≧1.5-fold Melanin Induction in NHEMs” value in series [2] was found to be 12.5 mM. The “Tyrosinase In Situ” value in series [6] (5 day treatment, 300 mM 1,2-PG, 25 mM 3,3-M-1,2-BD, 5 mM 5-NBene-2,2-DM, 0.1 mM IBMX) was 20.5 dpm/hr/10^3 Cells and 21.0 dpm/hr/10^3 Cells. Besides, in series [6] (setting [7]), the “Tyrosinase 200 g Partic” value is 1646 dpm/hr/10^3 Cells and 2226 dpm/hr/10^3 Cells; the “Tyrosinase Cellular” value is 11728 dpm/hr/10^3 Cells and 11730 dpm/hr/10^3 Cells. Further, the “Tyrosinase 17300 g Partic” value in series [6] (Post 200 X g, 5 day treatment, concentrations as E130) is 536 dpm/hr/10^3 Cells and 425 dpm/hr/10^3 Cells. Further, the “Tyrosinase Media” value in series [6] (Post 17300 X g, 5 day treatment, concentrations as E130) was 5495 dpm/hr/10^3 Cells and 3056 dpm/hr/10^3 Cells. In series [6] (setting [8]), the “Tyrosinase 200 g Partic, relative to controls (in parentheses)” value is “(5.64X)”; the “Tyrosinase 17300 g Partic, relative to controls (in parentheses)” value is given as “(4.20X)”; the “Tyrosinase Cellular, relative to controls (in parentheses)” value was “(1.15X)”; the “Tyrosinase In Situ, relative to controls (in parentheses)” value was “(1.31X)”. In series [6] (setting [8]), the “Tyrosinase Media, relative to controls (in parentheses)” value was “(2.75X)”. Further, in series [3], the “Tyrosinase dpm/hr 10^3 Cells” value turned out to be 1211 ± 38 dpm/hr/10^3 Cells and the “Tyrosinase dpm/hr ug Protein” value turned out to be 1746 ± 220 dpm/hr/ug Protein. Moreover, in series [4] (concentrations that induce much higher levels of tyrosinase), the “toxicity to S91 cells” value was “nontoxic”.
